Patent publication US10610863B2, “Automatic microfluidic system for antibiotic susceptibility testing and method of operating thereof” (NATIONAL TSING HUA UNIVERSITY, priority 2016, dated 2020)
Converted amounts (≈) assume the structure as drawn.

How the values were obtained:
[1] = test system: vancomycin-intermediate Staphylococcus aureus (VISA); experiment: Microfluidic system of Embodiment 2 combination susceptibility testing (Test 6); assay type: cell-based; conditions: for minimum inhibitory concentration alone (denominator of the FIC equation): antibiotic alone; for minimum inhibitory concentration in combination (vancomycin + ceftazidime): colorimetric, 24 hours of incubation at 37° C.
Experimental: In Test 6, vancomycin-intermediate Staphylococcus aureus (VISA) is designed as a bacterial suspension to be tested, and two antibiotic solutions, that is, vancomycin and ceftazidime, with different concentrations are prepared. In details, the two antibiotic solutions are transported, separately, to each of the second reaction chambers 124a′, 124b′, 124c′, 124d′, 124e′, 124f′, 124g′, 124h′, 124i′, 124j′, 124k′ to mix with the broth and the bacterial suspension to be tested. Then, concentrations of vancomycin of the second reaction chambers 124a′, 124b′, 124c′, 124d′, 124e′, 124f′, 124g′, 124h′, 124i′, 124j′, 124k′ are 4 μg/mL, 6 μg/mL, 4 μg/mL, 4 μg/mL, 4 μg/mL, 0 μg/mL, 6 μg/mL, 6 μg/mL, 2 μg/mL, 2 μg/mL and 2 μg/mL, respectively. Furthermore, concentrations of ceftazidime of the second reaction chambers 124a′, 124b′, 124c′, 124d′, 124e′, 124f′, 124g′, 124h′, 124i′, 124j′, 124k′ are 2 μg/mL, 2 μg/mL, 4 μg/mL, 6 μg/mL, 0 μg/mL, 4 μg/mL, 6 μg/mL, 4 μg/mL, 6 μg/mL, 4 μg/mL and 2 μg/mL, respectively. In addition, a proper pH indicator, such as phenol red, is added to the broth in Test 6. After incubation at 37° C. for 24 hours, results can be visually observed.
In particular, incubation times from FIG. 10(a) to FIG. 10(d) are 0 hour, 10 hours, 17 hours and 24 hours.
Then, a fractional inhibitory concentration index of the two antibiotic solutions for the vancomycin-intermediate Staphylococcus aureus can be derived from the following equation: FICindex=FICA+FICB. FICA is calculated as a quotient between the minimum inhibitory concentration of vancomycin in combination and the minimum inhibitory concentration of vancomycin alone, and FICB is calculated as a quotient between the minimum inhibitory concentration of ceftazidime in combination and the minimum inhibitory concentration of ceftazidime alone. In particular, the combination can be determined as synergic when the fractional inhibitory concentration index is ≤0.5, as antagonistic when the fractional inhibitory concentration index is >4. The results between synergy and antagonistic tendency are defined as additive or indifferent.

[2] = test system: standard strain Enterococcus 29212 (ATCC); experiment: E-Test MIC, standard strain Enterococcus 29212 (Test 1); assay type: cell-based, E. faecalis; conditions: incubation time 24 hours
Experimental: In Test 1, a standard strain Enterococcus 29212, which includes E. faecalis and is purchased from American type culture collection (ATCC), is designed as a bacterial suspension to be tested. The standard strain Enterococcus 29212 is susceptible Enterococcus, and a minimum inhibitory concentration of the standard strain Enterococcus 29212 detected by a clinical standard (i.e., E-Test®) is 4 μg/mL. In particular, the antibiotic solution of Test 1 is a vancomycin-containing solution.

E. faecium (vanA) [3] = experiment: E-Test MIC, vancomycin-resistant Enterococcus vanA (Test 2); assay type: cell-based; conditions: incubation time 24 hours
Experimental: (§1) In Test 2, the antibiotic solution, the dilution mode and the operation of the microfluidic system are the as Test 1. However, a bacterial suspension to be tested of Test 2 is the bacterial suspension containing E. faecium (vancomycin-resistant Enterococcus). In particular, a genotype of the vancomycin-resistant Enterococcus in Test 2 is vanA, and a minimum inhibitory concentration thereof is determined by the conventional method (E-Test®) to be 32 μg/mL.

E. faecium (vanB) [4] = experiment: E-Test MIC, vancomycin-resistant Enterococcus vanB (Test 3); assay type: cell-based; conditions: incubation time 24 hours
Experimental: as §1, with “3,” for “2,”, “3” for “2”, “vanB,” for “vanA,”, “8” for “32”

E. gallinarum (vanC1) [5] = experiment: E-Test MIC, vancomycin-resistant Enterococcus vanC1 (Test 4); assay type: cell-based; conditions: incubation time 24 hours
Experimental: as §1, with “4,” for “2,”, “4” for “2”, “gallinarum” for “faecium”, “vanC1,” for “vanA,”, “3” for “32”, “μg/mL. The incubation time and the determined minimum inhibitory concentration of E. gallinarum (vanC1) in Test 4 are listed in Table 1.” for “μg/mL.”

E. casseliflavus (vanC2) [6] = experiment: E-Test MIC, vancomycin-resistant Enterococcus vanC2 (Test 5); assay type: cell-based; conditions: 24 h, read-out: MIC (E-test)
Experimental: (§2) In Test 5, the antibiotic solution, the dilution mode and the operation of the microfluidic system are the as Test 1. However, a bacterial suspension to be tested of Test 5 is the bacterial suspension containing E. casseliflavus (vancomycin-resistant Enterococcus). In particular, a genotype of the vancomycin-resistant Enterococcus in Test 4 is vanC2, and a minimum inhibitory concentration thereof is determined by the conventional method (E-Test®) to be 4 μg/mL. The incubation time and the determined minimum inhibitory concentration of E. casseliflavus (vanC2) in Test 5 are listed in Table 1.

[7] = test system: standard strain Enterococcus 29212 (ATCC); experiment: Microfluidic system of Embodiment 1 antibiotic susceptibility testing (Test 1); assay type: cell-based, E. faecalis; conditions: for MIC: Enterococcus
Text: In Test 1, a standard strain Enterococcus 29212, which includes E. faecalis and is purchased from American type culture collection (ATCC), is designed as a bacterial suspension to be tested. […] In particular, the antibiotic solution of Test 1 is a vancomycin-containing solution.
As to the determination of the minimum inhibitory concentration, a quantitative dye can be added into each of the first reaction chamber 122, the second reaction chamber 124a, the second reaction chamber 124b, the second reaction chamber 124c, and the second reaction chamber 124d as mentioned above. After few minutes, an upright fluorescent microscope is applied for determining fluorescent staining results as shown in FIG. 8. In details, the fluorescent staining results of the first mixing solution and each of the second mixing solutions (that is, the concentration of the antibiotic solution is 0 μg/mL, 2 μg/mL, 4 μg/mL, 6 μg/mL and 8 μg/mL, respectively) are shown, separately, from FIG. 8 (a) to FIG. 8 (e).
Alternatively, a proper pH indicator, such as phenol red, also can be added to the broth as a determination method. In details, a pH-dependent colorimetric broth, which includes brain heart infusion (BHI) media supplemented with 1% glucose and 0.05% phenol red, and antibiotics, are loaded. Then, the standard strain Enterococcus 29212 is loaded as the bacteria suspension to be tested herein for the antibiotic susceptibility testing. […] In particular, incubation times from FIG. 9(a) to FIG. 9(f) are 0 hour, 4 hours, 10 hours, 20 hours, 23 hours, and 24 hours.
The pH-dependent colorimetric broth will be transformed into an acidic pH due to bacterial growth, and the phenol red can be visually observed through color change from red to yellow.

E. faecium (vanA) [8] = experiment: Microfluidic system of Embodiment 1 antibiotic susceptibility testing (Test 2); assay type: cell-based; conditions: Enterococcus faecium, incubation time 24 hours
Experimental: (§3) Briefly, five different concentrations of antibiotic solutions (0 μg/mL, 2 μg/mL, 4 μg/mL, 6 μg/mL, and 8 μg/mL) are prepared, separately, by the microfluidic system of Embodiment 1 of the present disclosure with the proportional dilution mode. Then, the antibiotic solutions are mixed with the bacteria suspensions at a final concentration of 5×10^5 CFU/mL. The determination of the minimum inhibitory concentration is read after incubation at 37° C. for 24 hours.
(§4) Alternatively, a proper pH indicator, such as phenol red, also can be added to the broth as a determination method. In details, a pH-dependent colorimetric broth, which includes brain heart infusion (BHI) media supplemented with 1% glucose and 0.05% phenol red, and antibiotics, are loaded. Then, the standard strain Enterococcus 29212 is loaded as the bacteria suspension to be tested herein for the antibiotic susceptibility testing. Please refer to FIG. 9, which is colorimetric results of the antibiotic susceptibility testing of the standard strain Enterococcus 29212 diluted by the microfluidic chip of FIG. 1. […]
as §1, with “However, a bacterial suspension to be tested of Test 2 is the bacterial suspension containing E. faecium (vancomycin-resistant Enterococcus).” left out

E. faecium (vanB) [9] = experiment: Microfluidic system of Embodiment 1 antibiotic susceptibility testing (Test 3); assay type: cell-based; conditions: Enterococcus faecium, incubation time 19 hours
Experimental: as §3, §4
(§5) In Test 3, the antibiotic solution, the dilution mode and the operation of the microfluidic system are the as Test 1. […] In particular, a genotype of the vancomycin-resistant Enterococcus in Test 3 is vanB, and a minimum inhibitory concentration thereof is determined by the conventional method (E-Test®) to be 8 μg/mL.

E. gallinarum (vanC1) [10] = experiment: Microfluidic system of Embodiment 1 antibiotic susceptibility testing (Test 4); assay type: cell-based; conditions: Enterococcus gallinarum, incubation time 16 hours
Experimental: as §3
as §4, with “testing.” for “testing. Please refer to FIG. 9, which is colorimetric results of the antibiotic susceptibility testing of the standard strain Enterococcus 29212 diluted by the microfluidic chip of FIG. 1.”
as §5, with “4,” for “3,”, “4” for “3”, “vanC1,” for “vanB,”, “3” for “8”, “μg/mL. The incubation time and the determined minimum inhibitory concentration of E. gallinarum (vanC1) in Test 4 are listed in Table 1.” for “μg/mL.”

E. casseliflavus (vanC2) [11] = experiment: Microfluidic system of Embodiment 1 antibiotic susceptibility testing (Test 5); assay type: cell-based; conditions: Enterococcus casseliflavus, incubation time 17 hours
Experimental: as §3
as §4, with “testing.” for “testing. Please refer to FIG. 9, which is colorimetric results of the antibiotic susceptibility testing of the standard strain Enterococcus 29212 diluted by the microfluidic chip of FIG. 1.”
as §2, with “However, a bacterial suspension to be tested of Test 5 is the bacterial suspension containing E. casseliflavus (vancomycin-resistant Enterococcus).” left out

Row | SMILES | minimum inhibitory concentration alone (denominator of the FIC equation) [1] | minimum inhibitory concentration in combination (vancomycin + ceftazidime) [1] [µg/mL] | MIC [2] [µg/mL] | MIC (E. faecium (vanA) [3]) [µg/mL] | MIC (E. faecium (vanB) [4]) [µg/mL] | MIC (E. gallinarum (vanC1) [5]) [µg/mL] | MIC (E. casseliflavus (vanC2) [6]) [µg/mL] | susceptibility of the strain according to the CLSI guidelines [7] | MIC ([7]; 37° C. for 24 hours, live bacteria green fluorescence, read-out: minimum inhibitory concentration by fluorescent staining) [µg/mL] | MIC ([7]; colorimetric (phenol red), incubation time 20 hours, read-out: MIC (Microfluidic system of Embodiment 1)) [µg/mL] | MIC (Microfluidic system of Embodiment 1) ([7]; colorimetric (phenol red), incubation time 20 hours) [µg/mL] | MIC (E. faecium (vanA) [8]) [µg/mL] | MIC (E. faecium (vanB) [9]) [µg/mL] | MIC (E. gallinarum (vanC1) [10]) [µg/mL] | MIC (E. casseliflavus (vanC2) [11]) [µg/mL]
1 | CC(C)(O/N=C(\C(=O)N[C@@H]1C(=O)N2C(C(=O)[O-])=C(C[n+]3ccccc3)CS[C@H]12)c1csc(N)n1)C(=O)O [ceftazidime] | > 256 | 2 |  |  |  |  |  |  |  |  |  |  |  |  | 
2 | CN[C@H](CC(C)C)C(=O)N[C@H]1C(=O)N[C@@H](CC(N)=O)C(=O)N[C@H]2C(=O)N[C@H]3C(=O)N[C@H](C(=O)N[C@H](C(=O)O)c4cc(O)cc(O)c4-c4cc3ccc4O)[C@H](O)c3ccc(c(Cl)c3)Oc3cc2cc(c3O[C@@H]2O[C@H](CO)[C@@H](O)[C@H](O)[C@H]2O[C@H]2C[C@](C)(N)[C@H](O)[C@H](C)O2)Oc2ccc(cc2Cl)[C@H]1O [vancomycin] | 3 | 4 | 4 (≈ 2.76 µM) | 32 (≈ 22.1 µM) | 8 (≈ 5.52 µM) | 3 (≈ 2.07 µM) | 4 (≈ 2.76 µM) | susceptible | 4 (≈ 2.76 µM) | 4 (≈ 2.76 µM) | 4 ± 0 | > 16 | 4 (≈ 2.76 µM) | 4 (≈ 2.76 µM) | 6 (≈ 4.14 µM)
